35 molecules from a melting point compilation (Tetko et al.; mined from patent text by program, amines drawn as free bases though some values may be those of a salt) can be followed below.

SMILES strings stand for the structures. Bounds are passed on as bounds.

On to `CS(=O)(=O)c1ccc(-c2cc(COCCO)nn2CC2CCCCC2)cc1`, for which the melting point lay in the range of 73 to 75 °C. The molecule `Cc1oc2ccc(NC(=O)c3ccccc3)nc2c1CCN(C)C` yielded a melting point of 119 to 120 °C. Then `COc1ccccc1N1CCN(CCCNc2ncc3cc(-c4c(Cl)cccc4Cl)c(=O)n(C)c3n2)CC1`, with 187 to 188 °C; and `OC1CC(c2ccc(Oc3ccc(-c4ccc(Cl)cc4)cc3)cc2)Cc2ccccc21` (stereo not given), with 156 °C; and `Cc1nc(N)nc(N)c1-c1ccc(F)cc1Cl`, with 238 °C. With `O=C(O)C(Cc1ccccc1)Oc1ccc2cc(-c3ccc(-c4ccccc4)[nH]3)ccc2c1` (stereo not given) the figure was 176 to 178 °C; with `Cc1oc(-c2ccc3ccccc3c2)nc1COc1ccc(/C=C/CO)cc1`, 159 to 160 °C; with `COc1ccc2sc(C(N)=O)c(SC)c2c1`, 171 to 173 °C. With `O=C(/C=C/c1ccccc1Cl)/C=C/c1ccccc1Cl` the figure was 116 to 118 °C; with `NC(CF)(Cc1ccc(O)c(O)c1)C(=O)O` (stereo not given), 230 °C; with `COc1cc(F)c2c(c1)Oc1ccccc1S2(=O)=O`, 226 to 230 °C.

Turning to `Cc1cc(Nc2cc(-c3cccc(N4Cc5cc(C(C)(C)C)ccc5C4=O)c3CO)cn(C)c2=O)nn1C`, the melting point fell in the range of 225 to 227 °C. Molecule `COC(=O)c1cc(C)nn1-c1ncc(Cl)cc1Cl` had a melting point of 97 to 98 °C. Then `COc1cccc(C(=O)N2C(=O)CN(c3ccccc3)C2=O)c1`, with 161 to 162 °C; and `CCOC(=O)N1CCc2c(nc3ccccc3c2C)C(Cl)C1` (stereo not given), with 131 °C; and `CNC(=O)Oc1ccc2c(c1)c1c(n2C)C2(CC1)CCN(Cc1ccccc1)CC2`, with 189 to 190 °C. Molecule `CC(C)(C)c1cc(C(=O)c2ccc[nH]2)cc(C(C)(C)C)c1O` showed a melting point of 146 °C. In turn, `N#Cc1c(N2CCN(C(=O)c3ccco3)CC2)c2cc(F)ccc2n(Cc2ccc(F)cc2)c1=O` registered a melting point of 248 °C. Then `C=CCCOc1ccc(CCCOC(=O)NS(=O)(=O)NCCOC(C)C)c(Oc2ncc(C(F)(F)F)cc2Cl)c1`, with 111 to 113 °C; and `O=C(COCc1cc(Br)cc2[nH]c(=O)c(=O)[nH]c12)Nc1ccccc1`, with more than 250 °C; and `Cc1cc(N(C)S(C)(=O)=O)ccc1I`, with 85 to 87 °C.

`CC(=O)N(C)Cc1ccc(CCn2cnc3cc(-c4ccc(Cl)cc4)sc3c2=O)cc1` came in with a melting point of 176 to 178 °C. With `CCOc1ccc(C2C(C(=O)c3ccc(C(C)C)cc3)=C(O)C(=O)N2c2ccc(C)nn2)cn1` (stereo not given) the figure was 274 to 276 °C; with `COc1ccc(CN(C)CCCOc2ccc(S(=O)(=O)c3c(C(C)C)n(C)c4ccccc34)cc2)cc1OC`, 105 °C; with `COc1ccc2c(c1)C(=O)N(c1ccc3ccoc3c1)C2`, 141 to 143 °C. Then `CCOC(=O)On1nnc2ccc(Cl)cc21`, with 160 to 162 °C; and `Nc1c(Br)cc(-n2cnnc2)cc1C(F)(F)F`, with 202 to 203 °C.

With `O=C1CSc2cc(C(O)(C(F)(F)F)C(F)(F)F)ccc2N1`, the melting point lay within 230 to 232 °C. `CN(C)c1ccc(C=CC(=O)C=Cc2ccc(N(C)C)cc2)cc1` came in with a melting point of 174 to 176 °C. With `COc1cc(N)c2nc(Cl)cc(C)c2c1Oc1cccc(C(F)(F)F)c1` the figure was 133 to 135 °C; with `CC(C)C(=O)CCSc1cc(C(C)(C)C)c(O)c(C(C)(C)C)c1`, 50 to 53 °C. With `Cc1c(C)c2c(c(C)c1N)CC(C)(CN1CCC(OCc3ccccc3)CC1)O2` (stereo not given) the figure was 85 to 86 °C; with `COc1nc2cc(C)c(Cl)c(N)c2nc1OC`, 169 to 170 °C; with `O=Cc1csc(NC(=O)OCC(Cl)(Cl)Cl)n1`, 188 to 190 °C. With `CCOC(=O)c1cnc2cc(F)c(F)cc2c1Cl` the figure was 111 °C.
